# Measurements as given in PMC13672995, “NCR13 peptide protects soybean against Cercospora sojina using multi-faceted modes of action and additive interaction with chemical fungicides” (Journal of Experimental Botany, 2025).
# Where no end group is shown, it is not given here.
# Tests used:
# [1] = tested on: C. sojina QoI fungicide-sensitive isolate Cs320; test: microbe, parasite or virus in culture; assay type: cell-based, Cercospora sojina
# Procedure: (§1) In vitro antifungal activity of AFPs and QoI fungicides was determined using 96-well plate assays as described ([Velivelli et al., 2020]) with slight modifications. Briefly, 2- to 3-week-old C. sojina was used to make a conidial suspension in 2× SFM at the final concentration of ∼10^5 conidia ml^−1. Simultaneously, peptide dilutions (in water) at various concentrations were made. Fungicides were dissolved in 50% acetone and 50% water to make a stock solution of 500 µM, and serial dilutions were made in water as needed. The peptide–conidia or the fungicide–conidia mixture at the ratio of 1:1 (45 µl:45 µl) was added in a 96-well plate and incubated at room temperature for 48 h, after which MICs of the peptides/fungicides were calculated based on microscopy as well as the resazurin cell viability assay ([Velivelli et al., 2020]).
# [2] = tested on: C. sojina Cs320 (fungicide sensitive); test: Peptide-fungicide checkerboard assay; assay type: cell-based, Cercospora sojina; conditions: Cs320, in vitro, 96 h
# Procedure: (§2) Synergy between NCR13_PFV1 and the widely used QoI foliar fungicides, azoxystrobin (Sigma-Aldrich, Cat No: 31697), trifloxystrobin (Sigma-Aldrich, Cat No: 46447), and pyraclostrobin (Sigma-Aldrich, Cat No: 33696), were evaluated using checkerboard assays. This assay was performed in a 96-well plate and the preparation of conidial suspension, peptide dilutions, and fungicide dilutions were similar to the in vitro antifungal activity assay described above. The presence of an alternative respiration pathway allows some fungi including C. sojina to germinate even in the presence of a high dose of QoI fungicides in vitro ([Ziogas et al., 1997]; [Zhang et al., 2012]). Therefore, to prevent alternative respiration in C. sojina, salicylhydroxamic acid (SHAM) was added in each reaction at the final concentration of 60 µg ml^–1 ([Zhang et al., 2012]). The conidia, peptide, fungicide, and SHAM were added in a 96-well plate at the v/v ratio of 4:1:1:2 (50 µl:12.5 µl:12.5 µl:25 µl) in the final reaction volume of 100 µl, and the plate was incubated at room temperature for 96 h (4 d). After 96 h, MIC values of the peptide–fungicide combination, peptide alone, and fungicide alone were calculated based on microscopy as well as the resazurin cell viability assay. The fractional inhibitory concentration (FIC) index was calculated using the formula FIC = (MICA+B/MICA) + (MICB+A/MICB), where MICA and MICB are the MIC for peptide (A) alone and fungicide (B) alone, respectively, MICA+B is the MIC for peptide in combination with fungicide (A+B), and MICB+A is the MIC for fungicide in combination with peptide (B+A). The FIC index was interpreted as: synergistic, ≤0.5; additive, >0.5–1.0; indifferent, >1 to <4.0; or antagonistic, ≥4.0.
# [3] = tested on: C. sojina Cs350 (fungicide resistant); test: Peptide-fungicide checkerboard assay; assay type: cell-based, Cercospora sojina
# Procedure: as §2
# [4] = tested on: azoxystrobin-resistant C. sojina Cs350 conidia; test: Cell death detection assay (propidium iodide, confocal microscopy); assay type: cell-based, Cercospora sojina; conditions: azoxystrobin 48 μM alone; within 1 h; PI staining; n=3
# Procedure: The fungicidal activity of azoxystrobin and peptide NCR13_PFV1 in azoxystrobin-resistant C. sojina Cs350 was analyzed by visualizing the influx of a cell death indicator dye propidium iodide (PI) using time-lapse confocal microscopy. The C. sojina conidia were treated with various concentrations of azoxystrobin, NCR13_PFV1, azoxystrobin plus NCR13_PFV1, or water and 0.5 μg ml^–1 PI, and were observed under confocal microscopy at an excitation and emission wavelength of 500 nm and 545–690 nm, respectively. Z-stacks at each time point were acquired using a ×63 water immersion objective lens (HC PL Apochromat CS2). For each sample, the number of live and dead cells after 1 h of peptide, fungicide, or combination treatment was determined.
# [5] = tested on: C. sojina Cs350 conidia and germlings; test: Plasma membrane permeabilization assay (SYTOX Green); assay type: cell-based, Cercospora sojina; conditions: Cs350; 0.5 µM SG; confocal microscopy
# Procedure: Membrane permeabilization of C. sojina Cs350 by NCR13_PFV1 and azoxystrobin was analyzed by visualizing the influx of SYTOX Green (SG) (Thermo Scientific) using time-lapse confocal microscopy. Germlings grown for 6–8 h or conidia of C. sojina were mixed with various concentrations of NCR13_PFV1, azoxystrobin, or both and 0.5 µM SG and were observed under confocal microscopy at an excitation wavelength of 500 nm and an emission wavelength ranging from 510 nm to 600 nm at specific time intervals. A z-stack at each time point was acquired using a ×63 water immersion objective lens (HC PL Apochromat CS2).
# [6] = tested on: C. sojina Cs350 on soybean cv. Blackhawk (FLS); test: In planta post-inoculation assay of NCR13_PFV1 and azoxystrobin combinations; assay type: in vivo, Cercospora sojina; conditions: azoxystrobin alone sprayed at 3 µM and 6 µM
# Procedure: To further test additive/synergistic interaction between NCR13_PFV1 and azoxystrobin against the fungicide-resistant isolate Cs350, in planta assays were performed. These assays were similar to the post-inoculation in planta assays as mentioned above. Briefly, second or third trifoliate leaves of soybean were first sprayed with 1 ml of Cs350 conidial suspension (1×10^5 ml^−1) followed by spray application with 1 ml of NCR13_PFV1 (24 µM) or azoxystrobin (3 µM or 6 µM) or their combination (24 µM NCR13_PFV1 plus 3 µM azoxystrobin or 24 µM NCR13_PFV1 plus 6 µM azoxystrobin) or water after 2 h of pathogen inoculation. Plants were incubated in the growth chamber, and disease scoring was done as described above.
# [7] = Heme-peptide binding assay (colour change); conditions: equimolar heme and peptide, 100 µM, 1 h, room temperature
# Procedure: Heme solutions were freshly prepared by dissolving hemin chloride (Sigma Cat No: 3741) in 0.1 M NaOH and used within an hour after preparation. Two heme-sequestering peptides, NCR247 and NCR455 ([Montiel et al., 2017]; [Sankari et al., 2022]), were used as positive controls, and water-only treatment as a negative control. The equimolar concentration of heme and peptide (100 µM) or water were mixed and incubated at room temperature for 1 h. When dissolved in NaOH, heme is light to dark brown in color; however, when it binds to a peptide, the color changes to reddish-brown as described by [Sankari et al. (2022)]. The change in color of heme to reddish-brown indicated the heme binding ability of the peptide.
# [8] = Peroxidase assay (TMB substrate); assay type: biochemical; conditions: heme 5 µM, peptide 5 µM, absorption at 370 nm and 652 nm
# Procedure: A Pierce TMB substrate kit (Thermo Scientific) was used to measure the peroxidase activity of heme. In a transparent 96-well plate, 50 µl of TMB substrate and 50 µl of […] were added followed by addition of heme (5 µM) or peptides plus heme (5 µM each). The reaction progression was measured in the Tecan plate reader, by recording UV-vis absorption values at 370 nm and 652 nm for every minute up to 1 h.
# [9] = tested on: C. sojina QoI fungicide-resistant isolate Cs350; assay type: cell-based, Cercospora sojina
# Procedure: as §1
# [10] = tested on: fungicide-sensitive and -resistant isolates of C. sojina; test: In vitro antifungal activity assay (MIC stated across isolates); assay type: cell-based, Cercospora sojina
# Procedure: as §1
# [11] = SFM, ~10^5 conidia ml−1, room temperature, 48 h, resazurin cell viability assay and microscopy
Compound,"MIC (µM) against Fungicide sensitive C. sojina isolate (Cs320) ([1]; QoI fungicides, determined in 2 days, 0.02 µM lowest concentration tested) [µM]",interaction with NCR13_PFV1 by FIC index [2],"interaction with NCR13_PFV1 by FIC index ([3]; Cs350, in vitro, 96 h)","FIC score ([3]; pair azoxystrobin / NCR13_PFV1, Cs350, 4 d)","Combination MIC ([3]; pair azoxystrobin / NCR13_PFV1, Cs350, 4 d, SHAM 60 µg ml–1, microscopy) [µM]","MIC ([3]; pair azoxystrobin / NCR13_PFV1, Cs350, 4 d, SHAM 60 µg ml–1, microscopy, highest fungicide concentration 48 µM, read-out: Individual MIC) [µM]",cell death [4] [%],plasma membrane permeabilization (SYTOX Green uptake) [5],FLS symptoms in planta [6],heme binding (colour change of heme from brown to reddish-brown) [7],peroxidase activity of heme and FeSO4 in the presence of peptide [8],"MIC (μM) against C. sojina isolates, Fungicide sensitive, Cs320 [1, 11] [µM]",fold increase of MIC with increasing iron concentration ([9]; FeSO4 in SFM) [fold],"MIC (μM) against C. sojina, Fungicide resistant, Cs350 [9, 11] [µM]",fold less potent than NCR13_PFV1 ([10]; from MIC against C. sojina) [fold],"MIC against fungicide-sensitive and -resistant isolates of C. sojina ([10]; range over Cs320 and Cs350, 48 h) [µM]"
"CO/C=C(/C(=O)OC)c1ccccc1Oc1cc(Oc2ccccc2C#N)ncn1 [Azoxystrobin, azoxystrobin]",0.09 to 0.18,"additive (additive, >0.5–1.0)","additive (additive, >0.5–1.0)",≤ 1,48,> 48,11,did not permeabilize the plasma membrane,able to reduce FLS symptoms in planta,–,–,–,–,–,–,–
"RNGCIVDPRCPYQQCRRPLYCRRR [NCR247, reference compound]",–,–,–,–,–,–,–,–,–,visible color change of heme from brown to reddish-brown,reduced or stopped,–,–,–,–,–
TKPCQSDKDCKKFACRKPKVPKCINGFCKCVR (disulfide (positions not given here)) [NCR13_PFV2],–,–,–,–,–,–,–,–,–,no such color change,not reduced or stopped,1.5,2,3,2,1.5 to 3
